Experimental data reported in ChEMBL document CHEMBL3638917, “Triazine derivatives” (2015).

Target: T1, cAMP and cAMP-inhibited cGMP 3',5'-cyclic phosphodiesterase 10A (Rattus norvegicus, UniProt Q9QYJ6)
T1 sequence (Q9QYJ6 whole entry): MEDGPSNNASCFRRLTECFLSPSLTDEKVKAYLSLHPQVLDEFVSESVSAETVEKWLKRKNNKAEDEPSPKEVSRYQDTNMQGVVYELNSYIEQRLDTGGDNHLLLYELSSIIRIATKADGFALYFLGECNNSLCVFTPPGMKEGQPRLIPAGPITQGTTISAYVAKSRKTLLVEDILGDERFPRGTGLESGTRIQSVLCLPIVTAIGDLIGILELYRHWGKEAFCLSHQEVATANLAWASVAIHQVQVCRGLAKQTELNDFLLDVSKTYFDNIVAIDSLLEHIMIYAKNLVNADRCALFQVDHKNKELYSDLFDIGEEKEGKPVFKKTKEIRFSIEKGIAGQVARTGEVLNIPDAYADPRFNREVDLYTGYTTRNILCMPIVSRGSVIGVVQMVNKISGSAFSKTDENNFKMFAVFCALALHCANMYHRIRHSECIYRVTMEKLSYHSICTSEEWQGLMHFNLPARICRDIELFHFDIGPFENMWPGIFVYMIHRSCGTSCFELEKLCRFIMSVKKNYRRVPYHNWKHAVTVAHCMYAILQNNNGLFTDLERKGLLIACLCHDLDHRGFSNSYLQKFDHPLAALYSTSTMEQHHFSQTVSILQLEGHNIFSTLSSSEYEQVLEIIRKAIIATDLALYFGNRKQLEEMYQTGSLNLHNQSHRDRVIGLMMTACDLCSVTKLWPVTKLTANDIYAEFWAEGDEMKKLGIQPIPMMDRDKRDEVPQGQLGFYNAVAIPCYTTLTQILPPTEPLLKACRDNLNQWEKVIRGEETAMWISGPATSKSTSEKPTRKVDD
Assay: The products of Examples 1-175 were tested in the assay described below.PDE10 activity was measured using a scintillation assay (SPA-based method) similar to that previously described by Seeger, T. F. et al., Brain Research 985 (2003) 113-126. The compounds' relative activity as PDE10 inhibitors was investigated by assaying a fixed amount of enzyme in the presence of the test compound and low substrate concentration (cAMP) such that an IC50 could be determined. […] The assay is performed in a 384-well format with 50 uL assay buffer (50 mM TRIS pH 7.5; 1.3 mM MgCl2; 0.01% Brij) containing enough PDE10.

IC50: 2.7 nM
Compound: CCc1nn(C)c2c1CN(c1ncnn3c(C)nc(-c4cccc(OC)c4)c13)CC2
